One may read the Ki as the dissociation constant of the complex between target and ligand, obtained from inhibition or displacement.

Structures are written as SMILES.

The nature of one test: Inhibition of Staphylococcus aureus DHFR.
Turning to `C/C=C/c1cc(Cc2cnc(N)nc2N)cc(OC)c1OC`, the affinity, expressed as Ki, was 1.4 nM. This counts as single-digit nanomolar.

Take `C=CCc1cc(Cc2cnc(N)nc2N)cc(OC)c1OC`: the affinity, expressed as Ki, was 2.8 nM. In turn, `CCOc1cc(Cc2cnc(N)nc2N)cc(OC)c1OC` showed a Ki of 2.5 nM.

The compound `CCCOc1cc(Cc2cnc(N)nc2N)cc(OC)c1OC` gave an inhibition constant Ki of 1.4 nM.

The next test can be described thus: Antibacterial activity against Staphylococcus aureus.
`CCCc1cc(Cc2cnc(N)nc2N)cc(CCC)c1OC` returned an inhibition constant (Ki) of 3.2 nM. `C=CCOc1cc(Cc2cnc(N)nc2N)cc(OC)c1OC` had an inhibition constant (Ki) of 3 nM.
